Results from PubChem BioAssay AID2305 (GlaxoSmithKline (GSK), 2010).
“And” between values parts separate entries of the source, which are not always exact repeats. Identical values can stand only once.

These compounds were tested on P. falciparum 3D7 growth, pLDH absorbance (assay: blood-stage malaria parasite growth potency – strain 3D7, dose response (AID 2305)).
With `Clc1ccc2c(NN=Cc3cccnc3)ccnc2c1` the IC50 was 700 nM.
`COc1ccc2cc(C=NNc3nc4ccccc4[nH]3)c(Cl)nc2c1` showed an IC50 of 650 nM.
With `CC(=O)c1cc(N2CCOCC2)ccc1N` the IC50 was 910 nM.
With `O=[N+]([O-])c1ccc(Oc2c(Cl)cc(S(=O)(=O)N3CCC(CN4CCC(c5c[nH]c6ccccc56)CC4)CC3)cc2Cl)c(Cl)c1` the IC50 was 1000 nM.
`COc1cccc(C(=O)NCCOc2ccccc2)c1Oc1ccccc1` showed an IC50 of 920 nM.
In the case of `O=C(CC1CCCC1)Nc1ccc2c(c1)CCC2`, the IC50 is reported as 870 nM.
With `FC(F)(F)c1ccc(NC(=S)NC2CCC(CN3CCC(c4c[nH]c5ccccc45)CC3)CC2)cc1` (configuration not stated) the IC50 was 730 nM and 390 nM.
`O=C(Nc1ccc(Cn2ncc(N3CCCNCC3)c(Cl)c2=O)cc1)Nc1cccc(C(F)(F)F)c1` gave an IC50 of 640 nM.
In the case of `CN(C)CCN(C)Cc1ccc(-c2ccc3c(Nc4ccc(Oc5ccccn5)cc4)ccnc3c2)o1`, the IC50 is reported as 420 nM.
Compound `COc1ccc2nccc([C@@H](O)CN3CCC(NCCOc4c(C)cccc4F)CC3)c2c1` has an IC50 of 350 nM.
`c1ccc2[nH]c(-c3ccc(-c4ccc(CN5CCN(c6ccncc6)CC5)cc4)s3)nc2c1` showed an IC50 of 200 nM.
For `CN1CCCN(Cc2ccc(-c3cccc(NC(=O)c4ccc(F)cc4)c3)cc2)CC1`, the IC50 was 1090 nM.
For `c1cc(CN2CCCCC2)cc(-c2csc(-c3nc4ccccc4[nH]3)c2)c1`, the IC50 was 850 nM.
`COc1c(C2CCN(CCCCNC(=O)c3cc(-c4ccc(Cl)cc4)oc3C)CC2)ccc2c1CCCC2` showed an IC50 of 880 nM.
`Cc1cc(NN=Cc2ccccc2[N+](=O)[O-])c2cccc(C)c2n1` gave an IC50 of 550 nM.
`C[C@@H]1C[C@@H]([C@H](O)CC2CC(=O)NC(=O)C2)C(=O)[C@@H](C)C1` gave an IC50 of 530 nM.
`Cc1cccc(NC(=S)NC2CCN(CCCCCNC(=O)/C=C/c3ccc(Cl)c(Cl)c3)CC2)c1` was tested, and the IC50 was 950 nM.
Compound `COc1cc2nc(-c3ccccc3)nc(N3CCN(CC(=O)N4CCCC4)CC3)c2cc1OC` has an IC50 of 1130 nM.
`Cc1c(CC(=O)N(C)C2CCN(CCCCCNC(=O)/C=C/c3ccc(Cl)c(Cl)c3)CC2)sc2ccc(Cl)cc12` was tested, and the IC50 was 1160 nM.
With `Cc1[nH]c(C)c(-c2ccc(-c3ccc(OC(F)(F)F)cc3)nc2)c(=O)c1Cl` the IC50 was 200 nM.
`O=C(Nc1ccc(-c2ccc(-c3nc4ccc(C(F)(F)F)cc4[nH]3)s2)cc1)c1ccoc1` gave an IC50 of 850 nM.
`OC(CNC1CCCCCC1)c1ccc(Cl)c(Cl)c1` (configuration not stated) gave an IC50 of 690 nM.
For `CCCc1cc(Cc2cnc(N)nc2N)cc2c1OC(C)C2C` (configuration not stated), the IC50 was 670 nM.
`Clc1ncnc2ncn(Cc3cccc(Br)c3)c12` gave an IC50 of 1060 nM.
For `Cc1cc(C(=O)CN2C(=O)NC3(CCCc4ccccc43)C2=O)c(C)n1Cc1ccco1` (configuration not stated), the IC50 was 1100 nM.
`CC(C)C[C@H](NC(=O)c1ccc(OCCN2CCOCC2)cc1)C(=O)N[C@H](/C=N/N(C)C(=O)c1ccccc1)CCc1ccccc1` was tested, and the IC50 was 270 nM.
`CC(C)CCn1c(Sc2ccc(C#N)c([N+](=O)[O-])c2)nnc1-c1ccc(Cl)cc1` gave an IC50 of 870 nM.
In the case of `Cc1ccc(NC(C)C(=O)Nc2ccccc2)cc1S(=O)(=O)N1CCCCCC1` (configuration not stated), the IC50 is reported as 60 nM.
`Cc1cc2ncn(-c3ccnc(N4CCN(CCCN5CCCC5)CC4)n3)c2cc1C` showed an IC50 of 830 nM.
In the case of `COc1ccc(Cl)cc1N1CCN(CCCNC(=O)c2ccc(-c3nc4cc(Cl)c(Cl)cc4[nH]3)c(C)c2)CC1`, the IC50 is reported as 870 nM.
Compound `CCc1sc(-c2ccc(C(C)(C)C)cc2)nc1C(=O)NCCCN1CCCC1=O` has an IC50 of 990 nM.
Work on `Nc1nccc2ccc(-c3ccc(NC(=O)Nc4cc(C(F)(F)F)ccc4F)cc3)cc12` yielded an IC50 of 90 nM.
For `C=C[C@H]1CN2CC[C@H]1C[C@H]2[C@H](O)c1cc(/C=C/c2ccc(F)cc2)nc2ccc(OC)cc12`, the IC50 was 30 nM.
With `CC(CNC(=O)[C@H]1CNCCN1C(=O)CCCc1ccccc1)c1ccccc1` (some centres not stated) the IC50 was 920 nM.
For `CC(=O)Nc1ccc(C(=O)Nc2cccc(-c3cccc(-c4nc5ccc(C(F)(F)F)cc5[nH]4)c3)c2)cn1`, the IC50 was 70 nM.
Compound `O=[N+]([O-])c1cccc(NC(=S)N2CCCN(Cc3ccc(F)cc3F)CC2)c1` has an IC50 of 830 nM.
In the case of `ON=C1CCc2cc(-c3nc(-c4cccc(OCCNCc5ccc(F)cc5)c4)[nH]c3-c3ccncc3)ccc21`, the IC50 is reported as 890 nM.
`Cc1cccc(C)c1CNc1nc(N2CCOCC2)cc2c(C)c(C)[nH]c12` gave an IC50 of 1240 nM.
`CN1CCN(CC2(Nc3nccc(NCCc4cn(C)c5ccccc45)n3)CCCCC2)CC1` gave an IC50 of 1810 nM.
With `O=C(Nc1cccc(-c2csc(-c3nc4ccccc4[nH]3)c2)c1)c1ccoc1` the IC50 was 210 nM.
`CCCCCCCN1CC[C@@H](CCCc2ccnc3ccc(OCC4CCCNC4)cc23)[C@@H](CC)C1` (some centres not stated) gave an IC50 of 620 nM.
With `CCCSc1nc2c(c(=O)n1CCc1ccccc1)C1(CCCC1)Cc1ccccc1-2` the IC50 was 700 nM.
Compound `CCCCNCc1ccc(-c2nc(CN(CCCn3ccnc3)C(=O)N[C@@H]3C[C@H]3c3ccccc3)cs2)cc1` has an IC50 of 740 nM.
Work on `CC1=CC(=O)[C@@H](O)[C@]2(C)[C@H]3[C@@]4(O)OC[C@@]35[C@@H](C[C@@H]12)OC(=O)C[C@H]5[C@@H](C)[C@H]4O` yielded an IC50 of 350 nM.
Work on `CCCCCOc1c(CCC)cc(Cc2cnc(N)nc2N)cc1CCC` yielded an IC50 of 900 nM.
With `O=C(/C=C/c1cccc(C(F)(F)F)c1)NCCCCCN1CCC(c2c[nH]c3ccccc23)CC1` the IC50 was 840 nM.
`COc1ccc(Cl)cc1NC(=O)C(C)Nc1ccc(-c2ccccc2)cc1` (configuration not stated) showed an IC50 of 560 nM.
